In ChEMBL document CHEMBL1150205, “Justiciresinol, a new furanoid lignan from Justicia glauca” (1991):
≈ marks a conversion by molar mass, not a printed value.

Columns and labels:
Assay type in all cases: functional
Conditions in all cases: read-out: ED50 (the source's name)
A549 = experiment: Cytotoxicity against human A549 cells
MCF7 = experiment: Cytotoxicity against human MCF7 cells
HT-29 = experiment: Cytotoxicity against human HT-29 cells

## COc1cc([C@H]2OC[C@H](Cc3cc(OC)c(O)c(OC)c3)[C@@H]2CO)ccc1O [JUSTICIRESINOL]
A549
  EC50: 31.3 µg/mL (≈ 80.2 µM)
MCF7
  EC50: 22.3 µg/mL (≈ 57.1 µM)
HT-29
  EC50: 18.3 µg/mL (≈ 46.9 µM)
